The text below walks through data of article PMC4554834 (Bioorganic & medicinal chemistry, 2015).

The target of the test is T1, human OX1 receptors (Homo sapiens, UniProt O43613).
T1 sequence (O43613 1-425): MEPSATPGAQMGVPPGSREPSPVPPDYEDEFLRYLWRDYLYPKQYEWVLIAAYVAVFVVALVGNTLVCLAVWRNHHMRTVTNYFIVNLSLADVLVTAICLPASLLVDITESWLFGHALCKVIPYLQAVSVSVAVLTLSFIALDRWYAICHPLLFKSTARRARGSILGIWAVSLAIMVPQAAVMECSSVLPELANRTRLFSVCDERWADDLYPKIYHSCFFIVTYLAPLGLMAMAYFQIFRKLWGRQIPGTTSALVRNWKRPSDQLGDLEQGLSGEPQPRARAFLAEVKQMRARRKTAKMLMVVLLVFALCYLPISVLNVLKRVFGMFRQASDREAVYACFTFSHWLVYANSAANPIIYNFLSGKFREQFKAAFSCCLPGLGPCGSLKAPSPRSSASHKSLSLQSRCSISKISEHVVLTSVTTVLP
Nature of the test: Calcium mobilization Ke. Format: cell-based. The note with it: for OX1 potency (in words): qualitative statement. (In general: Calcium flux is commonly read through the fluorescence of an indicator in the cells.)

Where [1] appears, read: pre-incubation increased to 45 min and 60 min.
Setting [2] is: simultaneous addition of antagonist and Orexin A.

For `CCCCCNc1ccc2c(c1)CCN(CC(=O)NCc1ccccc1)C2Cc1ccc(OC)c(OC)c1` (stereo not drawn) [25r, N-Benzyl-2-{1-[(3,4-dimethoxyphenyl)methyl]-6-(pentylamino)-1,2,3,4-tetrahydroisoquinolin-2-yl}acetamide], the Kb was over 10000 nM.

For the molecule `CCOC(=O)CCCCCCOc1ccc2c(c1)CCN(CC(=O)NCc1ccccc1)C2Cc1ccc(OC)c(OC)c1` (stereo not drawn) [17f, Ethyl 7-({2-[(benzylcarbamoyl)methyl]-1-[(3,4-dimethoxyphenyl)methyl]-1,2,3,4-tetrahydroisoquinolin-6-yl}oxy)heptanoate], the Kb was over 10000 nM.

Regarding `CCOC(=O)CCNc1ccc2c(c1)CCN(CC(=O)NCc1ccccc1)C2Cc1ccc(OC)c(OC)c1` (stereo not drawn) [26c, Ethyl 3-({2-[(benzylcarbamoyl)methyl]-1-[(3,4-dimethoxyphenyl)methyl]-1,2,3,4-tetrahydroisoquinolin-6-yl}amino)propanoate], the Kb came to 809 ± 200 nM and the “OX1 potency (in words)” value is “some activity”.

Regarding `COc1ccc(CC2c3ccc(NC(=O)Nc4ccccc4)cc3CCN2CC(=O)NCc2ccccc2)cc1OC` (stereo not drawn) [28d, N-Benzyl-2-{1-[(3,4-dimethoxyphenyl)methyl]-6-[(phenylcarbamoyl)amino]-1,2,3,4-tetrahydroisoquinolin-2-yl}acetamide], the Kb is over 10000 nM and the “OX1 potency (in words)” value was “no significant potency”.

On to `COc1ccc(CC2c3ccc(NCCCC(=O)OC(C)(C)C)cc3CCN2CC(=O)NCc2ccccc2)cc1OC` (stereo not drawn) [26e, Tert-butyl 4-({2-[(benzylcarbamoyl)methyl]-1-[(3,4-dimethoxyphenyl)methyl]-1,2,3,4-tetrahydroisoquinolin-6-yl}amino)butanoate], for which the Kb came out at 1010 ± 200 nM. For the setting “15 minute pre-incubation”, the “mode of antagonism at OX1” value is reported as “insurmountable antagonism”. The “mode of antagonism at OX1” value under setting [1] is “competitive antagonists”. Moreover, under setting [2], the “mode of antagonism at OX1” value is “competitive antagonists”.

For `COc1ccc(CC2c3ccc(NCCCCOc4ccccc4)cc3CCN2CC(=O)NCc2ccccc2)cc1OC` (stereo not drawn) [25l, N-Benzyl-2-{1-[(3,4-dimethoxyphenyl)methyl]-6-[(4-phenoxybutyl)amino]-1,2,3,4-tetrahydroisoquinolin-2-yl}acetamide], the Kb was found to be 2080 ± 20 nM.

For `COc1ccc(CC2c3ccc(N4CCCC4)cc3CCN2CC(=O)NCc2ccccc2)cc1OC` (stereo not drawn) [25p, N-Benzyl-2-{1-[(3,4-dimethoxyphenyl)methyl]-6-(pyrrolidin-1-yl)-1,2,3,4-tetrahydroisoquinolin-2-yl}acetamide], the Kb is 2480 ± 6 nM and the “OX1 potency (in words)” value is listed as “some potency”.

Regarding `COc1ccc(CC2c3ccc(N(C)C)cc3CCN2CC(=O)NCc2ccccc2)cc1OC` (stereo not drawn) [25a, N-Benzyl-2-{1-[(3,4-dimethoxyphenyl)methyl]-6-(dimethylamino)-1,2,3,4-tetrahydroisoquinolin-2-yl}acetamide], the Kb was 1370 ± 100 nM.

For `COc1ccc(CC2c3ccc(NCc4ccncc4)cc3CCN2CC(=O)NCc2ccccc2)cc1OC` (stereo not drawn) [25m, N-Benzyl-2-{1-[(3,4-dimethoxyphenyl)methyl]-6-[(pyridin-4-ylmethyl)amino]-1,2,3,4-tetrahydroisoquinolin-2-yl}acetamide], the Kb was over 10000 nM.

With `COc1ccc(CCNc2ccc3c(c2)CCN(CC(=O)NCc2ccccc2)C3Cc2ccc(OC)c(OC)c2)cc1OC` (stereo not drawn) [25j, N-Benzyl-2-(6-{[2-(3,4-dimethoxyphenyl)ethyl]amino}-1-[(3,4-dimethoxyphenyl)methyl]-1,2,3,4-tetrahydroisoquinolin-2-yl)acetamide], the Kb was found to be 2180 ± 360 nM. Moreover, for the setting “15 minute pre-incubation”, the “mode of antagonism at OX1” value is on record as “insurmountable antagonism”. Further, the “mode of antagonism at OX1” value under setting [1] is reported as “competitive antagonists”. The “mode of antagonism at OX1” value under setting [2] is reported as “competitive antagonists”.

`CCOC(=O)C(C)Nc1ccc2c(c1)CCN(CC(=O)NCc1ccccc1)C2Cc1ccc(OC)c(OC)c1` (stereo not drawn) [26b, Ethyl 2-({2-[(benzylcarbamoyl)methyl]-1-[(3,4-dimethoxyphenyl)methyl]-1,2,3,4-tetrahydroisoquinolin-6-yl}amino)propanoate]: the Kb was over 10000 nM.

Consider `CCOC(=O)CCCOc1ccc2c(c1)CCN(CC(=O)NCc1ccccc1)C2Cc1ccc(OC)c(OC)c1` (stereo not drawn) [17e, Ethyl 4-({2-[(benzylcarbamoyl)methyl]-1-[(3,4-dimethoxyphenyl)methyl]-1,2,3,4-tetrahydroisoquinolin-6-yl}oxy)butanoate], for which the Kb was determined as 1000 ± 190 nM. Moreover, the “mode of antagonism at OX1” value (15 minute pre-incubation) was “insurmountable antagonism”. Besides, under setting [1], the “mode of antagonism at OX1” value is recorded as “competitive antagonists”. Moreover, under setting [2], the “mode of antagonism at OX1” value was “competitive antagonists”.

Turning to `COc1ccc(CC2c3ccc(NC(=O)c4ccccc4)cc3CCN2CC(=O)NCc2ccccc2)cc1OC` (stereo not drawn) [28c, N-{2-[(Benzylcarbamoyl)methyl]-1-[(3,4-dimethoxyphenyl)methyl]-1,2,3,4-tetrahydroisoquinolin-6-yl}benzamide], the Kb was over 10000 nM.

Regarding `CCOC(=O)CCCCCCNc1ccc2c(c1)CCN(CC(=O)NCc1ccccc1)C2Cc1ccc(OC)c(OC)c1` (stereo not drawn) [26g, Ethyl 7-({2-[(benzylcarbamoyl)methyl]-1-[(3,4-dimethoxyphenyl)methyl]-1,2,3,4-tetrahydroisoquinolin-6-yl}amino)heptanoate], the Kb is over 10000 nM.

As to `COc1ccc(CC2c3ccc(OCc4ccccc4)cc3CCN2CC(=O)NCc2ccccc2)cc1OC` (stereo not drawn) [17d, N-Benzyl-2-[6-(benzyloxy)-1-[(3,4-dimethoxyphenyl)methyl]-1,2,3,4-tetrahydroisoquinolin-2-yl]acetamide], the Kb was over 10000 nM.

On to `COc1ccc(CC2c3ccc(OCC(F)(F)F)cc3CCN2CC(=O)NCc2ccccc2)cc1OC` (stereo not drawn) [17b, N-Benzyl-2-{1-[(3,4-dimethoxyphenyl)methyl]-6-(2,2,2-trifluoroethoxy)-1,2,3,4-tetrahydroisoquinolin-2-yl}acetamide], for which the Kb was over 10000 nM.

On to `COc1ccc(CC2c3ccc(NCCCc4ccccc4)cc3CCN2CC(=O)NCc2ccccc2)cc1OC` (stereo not drawn) [25k, N-Benzyl-2-{1-[(3,4-dimethoxyphenyl)methyl]-6-[(3-phenylpropyl)amino]-1,2,3,4-tetrahydroisoquinolin-2-yl}acetamide], for which the Kb turned out to be 1180 ± 80 nM.

In the case of `COc1ccc(CC2c3cc(OC(C)C)ccc3CCN2CC(=O)NCc2ccccc2)cc1OC` (stereo not drawn) [10d, N-Benzyl-2-{1-[(3,4-dimethoxyphenyl)methyl]-7-(propan-2-yloxy)-1,2,3,4-tetrahydroisoquinolin-2-yl}acetamide], the Kb amounted to 49.7 ± 11 nM.

Regarding `CCCOc1ccc2c(c1)CCN(CC(=O)NCc1ccccc1)C2Cc1ccc(OC)c(OC)c1` (stereo not drawn) [17a, N-Benzyl-2-{1-[(3,4-dimethoxyphenyl)methyl]-6-propoxy-1,2,3,4-tetrahydroisoquinolin-2-yl}acetamide], the Kb is over 10000 nM.

Consider `COc1ccc(CC2c3ccc(NCc4ccccc4)cc3CCN2CC(=O)NCc2ccccc2)cc1OC` (stereo not drawn) [25h, N-Benzyl-2-[6-(benzylamino)-1-[(3,4-dimethoxyphenyl)methyl]-1,2,3,4-tetrahydroisoquinolin-2-yl]acetamide], for which the Kb stood at 1100 ± 290 nM.

For `COc1ccc(CC2c3ccc(NCCN4CCCCC4)cc3CCN2CC(=O)NCc2ccccc2)cc1OC` (stereo not drawn) [25o, N-Benzyl-2-{1-[(3,4-dimethoxyphenyl)methyl]-6-{[2-(piperidin-1-yl)ethyl]amino}-1,2,3,4-tetrahydroisoquinolin-2-yl}acetamide], the Kb is over 10000 nM and the “OX1 potency (in words)” value is recorded as “loss of detectable potency”.

Consider `COc1ccc(CC2c3ccc(OS(=O)(=O)c4ccccc4)cc3CCN2CC(=O)NCc2ccccc2)cc1OC` (stereo not drawn) [18b, 2-[(Benzylcarbamoyl)methyl]-1-[(3,4-dimethoxyphenyl)methyl]-1,2,3,4-tetrahydroisoquinolin-6-yl benzenesulfonate], for which the Kb was over 10000 nM.

For the molecule `CCCCOc1ccc2c(c1)C(Cc1ccc(OC)c(OC)c1)N(CC(=O)NCc1ccccc1)CC2` (stereo not drawn) [10e, N-Benzyl-2-{7-butoxy-1-[(3,4-dimethoxyphenyl)methyl]-1,2,3,4-tetrahydroisoquinolin-2-yl}acetamide], the Kb was found to be 230 ± 70 nM.

Consider `COc1ccc(CC2c3ccc(OC(C)C)cc3CCN2CC(=O)NCc2ccccc2)cc1OC` (stereo not drawn) [17c, N-Benzyl-2-{1-[(3,4-dimethoxyphenyl)methyl]-6-(propan-2-yloxy)-1,2,3,4-tetrahydroisoquinolin-2-yl}acetamide], for which the Kb is over 10000 nM.

As for `CCOC(=O)CNc1ccc2c(c1)CCN(CC(=O)NCc1ccccc1)C2Cc1ccc(OC)c(OC)c1` (stereo not drawn) [26a, Ethyl 2-({2-[(benzylcarbamoyl)methyl]-1-[(3,4-dimethoxyphenyl)methyl]-1,2,3,4-tetrahydroisoquinolin-6-yl}amino)acetate], the Kb was 427 ± 69 nM and the “OX1 potency (in words)” value is on record as “some activity”.

Take `CCCCCN(C)c1ccc2c(c1)CCN(CC(=O)NCc1ccccc1)C2Cc1ccc(OC)c(OC)c1` (stereo not drawn) [25s, N-Benzyl-2-{1-[(3,4-dimethoxyphenyl)methyl]-6-[methyl(pentyl)amino]-1,2,3,4-tetrahydroisoquinolin-2-yl}acetamide]: the Kb is over 10000 nM.

As to `CCCCCCN(C)c1ccc2c(c1)CCN(CC(=O)NCc1ccccc1)C2Cc1ccc(OC)c(OC)c1` (stereo not drawn) [25u, N-Benzyl-2-{1-[(3,4-dimethoxyphenyl)methyl]-6-[hexyl(methyl)amino]-1,2,3,4-tetrahydroisoquinolin-2-yl}acetamide], the Kb was over 10000 nM.

Turning to `COc1ccc(CC2c3ccc(N(C)Cc4ccccc4)cc3CCN2CC(=O)NCc2ccccc2)cc1OC` (stereo not drawn) [25i, N-Benzyl-2-{6-[benzyl(methyl)amino]-1-[(3,4-dimethoxyphenyl)methyl]-1,2,3,4-tetrahydroisoquinolin-2-yl}acetamide], the Kb is over 10000 nM.
